Some results are limits rather than exact numbers.

For one assay, the target named is T1, Histone deacetylase 8 (Homo sapiens, UniProt Q9BY41).
T1 sequence (Q9BY41 whole entry): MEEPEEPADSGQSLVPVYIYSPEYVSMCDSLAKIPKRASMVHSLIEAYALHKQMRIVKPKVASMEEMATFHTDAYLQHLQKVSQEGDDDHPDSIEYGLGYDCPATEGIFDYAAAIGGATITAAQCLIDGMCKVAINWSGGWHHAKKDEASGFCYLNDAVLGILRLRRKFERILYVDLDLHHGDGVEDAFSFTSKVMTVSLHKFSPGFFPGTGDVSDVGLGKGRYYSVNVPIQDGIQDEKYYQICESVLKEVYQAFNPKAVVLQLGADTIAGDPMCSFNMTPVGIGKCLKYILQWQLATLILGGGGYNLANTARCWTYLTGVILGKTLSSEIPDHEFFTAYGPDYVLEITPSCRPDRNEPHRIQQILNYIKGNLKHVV
Description: Inhibition of human KDAC8 after 60 mins by fluorescence assay.

The target of assay [1] is T2, Protein deacetylase HDAC6 (Homo sapiens, UniProt Q9UBN7).
T2 sequence (Q9UBN7 whole entry): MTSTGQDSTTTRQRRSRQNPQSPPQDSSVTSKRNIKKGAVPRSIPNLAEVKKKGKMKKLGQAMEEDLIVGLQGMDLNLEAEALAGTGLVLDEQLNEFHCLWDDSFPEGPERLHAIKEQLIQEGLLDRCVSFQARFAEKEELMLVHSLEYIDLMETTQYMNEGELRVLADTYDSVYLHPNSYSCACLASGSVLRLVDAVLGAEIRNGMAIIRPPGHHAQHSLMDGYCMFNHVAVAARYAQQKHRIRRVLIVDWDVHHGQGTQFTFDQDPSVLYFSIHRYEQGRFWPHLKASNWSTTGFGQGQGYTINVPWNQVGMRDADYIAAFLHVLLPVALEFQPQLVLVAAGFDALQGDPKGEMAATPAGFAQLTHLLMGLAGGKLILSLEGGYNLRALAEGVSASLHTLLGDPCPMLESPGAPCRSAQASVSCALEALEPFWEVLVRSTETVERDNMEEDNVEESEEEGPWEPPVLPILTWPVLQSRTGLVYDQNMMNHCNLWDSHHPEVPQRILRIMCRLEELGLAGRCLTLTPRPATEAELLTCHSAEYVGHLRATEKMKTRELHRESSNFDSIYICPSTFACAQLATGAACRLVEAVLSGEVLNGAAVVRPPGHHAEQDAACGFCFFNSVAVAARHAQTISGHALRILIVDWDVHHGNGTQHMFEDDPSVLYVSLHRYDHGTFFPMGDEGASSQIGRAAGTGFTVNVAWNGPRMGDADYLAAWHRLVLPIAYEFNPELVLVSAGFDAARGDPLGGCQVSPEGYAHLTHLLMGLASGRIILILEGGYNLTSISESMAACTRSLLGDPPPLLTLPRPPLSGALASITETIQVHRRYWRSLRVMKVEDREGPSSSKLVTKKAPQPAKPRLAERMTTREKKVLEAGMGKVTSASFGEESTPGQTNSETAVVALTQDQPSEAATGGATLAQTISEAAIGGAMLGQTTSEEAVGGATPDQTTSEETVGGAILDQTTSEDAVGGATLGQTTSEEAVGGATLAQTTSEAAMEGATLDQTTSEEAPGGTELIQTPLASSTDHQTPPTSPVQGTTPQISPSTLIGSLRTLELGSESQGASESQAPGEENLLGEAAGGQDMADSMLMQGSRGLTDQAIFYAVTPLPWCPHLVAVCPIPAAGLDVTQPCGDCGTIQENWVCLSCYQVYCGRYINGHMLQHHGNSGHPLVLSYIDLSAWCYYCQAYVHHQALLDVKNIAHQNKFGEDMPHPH
The assay can be described thus: Inhibition of human KDAC6 using FITC-labeled histone H4 acetylated peptide as substrate after 60 mins by fluorescence assay.

The target in assay [2] is T3, Histone deacetylase 3 (Homo sapiens, UniProt O15379). Description: Inhibition of human KDAC3 using FITC-labeled p53 acetylated peptide as substrate after 60 mins by fluorescence assay.
T3 sequence (O15379 whole entry): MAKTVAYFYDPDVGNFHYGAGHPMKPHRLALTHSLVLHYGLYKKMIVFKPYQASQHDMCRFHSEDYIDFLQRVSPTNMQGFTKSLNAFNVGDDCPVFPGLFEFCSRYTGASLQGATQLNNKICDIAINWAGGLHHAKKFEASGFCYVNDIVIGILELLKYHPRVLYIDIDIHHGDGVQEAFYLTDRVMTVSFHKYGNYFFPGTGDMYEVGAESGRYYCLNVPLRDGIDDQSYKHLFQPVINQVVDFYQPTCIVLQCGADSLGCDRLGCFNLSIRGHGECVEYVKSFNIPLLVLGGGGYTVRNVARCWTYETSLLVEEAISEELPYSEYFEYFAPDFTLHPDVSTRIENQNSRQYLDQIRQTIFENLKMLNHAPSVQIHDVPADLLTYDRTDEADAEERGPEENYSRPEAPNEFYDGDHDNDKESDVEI
In assay [3] the target is T4, Histone deacetylase 1 (Homo sapiens, UniProt Q13547). The assay can be described thus: Inhibition of human KDAC1 using substrate A after 60 mins by fluorescence assay.
T4 sequence (Q13547 whole entry): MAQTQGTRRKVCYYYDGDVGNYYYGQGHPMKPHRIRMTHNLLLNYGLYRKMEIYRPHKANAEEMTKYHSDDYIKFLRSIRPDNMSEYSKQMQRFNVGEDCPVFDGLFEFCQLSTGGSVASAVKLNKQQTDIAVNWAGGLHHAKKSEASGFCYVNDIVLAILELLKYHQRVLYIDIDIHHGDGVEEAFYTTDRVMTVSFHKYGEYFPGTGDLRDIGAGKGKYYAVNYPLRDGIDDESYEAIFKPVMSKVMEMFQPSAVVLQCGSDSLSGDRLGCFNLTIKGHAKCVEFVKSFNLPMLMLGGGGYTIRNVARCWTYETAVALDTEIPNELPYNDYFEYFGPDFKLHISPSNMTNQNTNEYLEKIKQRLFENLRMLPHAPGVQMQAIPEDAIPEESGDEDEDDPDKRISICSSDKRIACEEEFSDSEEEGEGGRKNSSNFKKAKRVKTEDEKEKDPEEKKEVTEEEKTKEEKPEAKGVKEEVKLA
The target in assay [4] is T5, Histone deacetylase 8 (Homo sapiens) (UniProt Q9BY41).
T5 sequence (whole entry): T1 sequence (Q9BY41 whole entry)
The assay can be described thus: Inhibition of human KDAC8 at 30 uM after 60 mins by fluorescence assay relative to control.

In assay [5] the target is T3, Histone deacetylase 3. Description: Inhibition of human KDAC3 at 30 uM using FITC-labeled p53 acetylated peptide as substrate after 60 mins by fluorescence assay relative to control.
The target in assay [6] is T4, Histone deacetylase 1. The assay can be described thus: Inhibition of human KDAC1 at 30 uM using substrate A after 60 mins by fluorescence assay relative to control.
For assay [7], the target named is T6, Protein deacetylase HDAC6 (Homo sapiens) (UniProt Q9UBN7).
T6 sequence (whole entry): T2 sequence (Q9UBN7 whole entry)
The following applies: at 30 µM.
Description: Inhibition of human KDAC6 at 30 uM using FITC-labeled histone H4 acetylated peptide as substrate after 60 mins by fluorescence assay relative to control

On to `CC(C)(C)Oc1ccc(C[C@@H]2N=C(c3ccccc3)c3ccccc3N(CCCCC(=O)O)C2=O)cc1`, for which the IC50 (on Histone deacetylase 8; in assay [1]; against Histone deacetylase 3 [2]; at Histone deacetylase 1 [3]) was more than 30 µM throughout. Further, the inhibition (as a rule, the change of the read-out against control, counted positive when it falls) in assay [4] is 2.15%; on Histone deacetylase 3 [5], 1.05%; against Histone deacetylase 1 [6] it was 4.65%; in assay [7], 0.28%.
Regarding `O=C(O)CCCCN1C(=O)[C@H](CC(=O)O)N=C(c2ccccc2)c2ccccc21`, the IC50 (at Histone deacetylase 8; in assay [1]; against Histone deacetylase 3 [2]; at Histone deacetylase 1 [3]) was more than 30 µM in each case. In addition, the inhibition was found to be 0% in assay [4], 1.93% at Histone deacetylase 3 [5], 0% at Histone deacetylase 1 [6] and 0% in assay [7].
As to `CC(C)(C)OC(=O)CC[C@@H]1N=C(c2ccccc2)c2ccccc2N(CCCCC(=O)NO)C1=O`, the IC50 – broadly, the point on the concentration scale where inhibition reaches its midpoint – on Histone deacetylase 8 worked out at 26.1 µM; in assay [1] it was 2.35 µM; against Histone deacetylase 3 [2], 1.03 µM; at Histone deacetylase 1 [3] it was 4.57 µM. Also, the inhibition in assay [4] was 52.5%; against Histone deacetylase 3 [5], 99.9%; against Histone deacetylase 1 [6], 83.8%; in assay [7] it was 93.7%.
Take `CC(C)(C)OC(=O)C[C@@H]1N=C(c2ccccc2)c2ccccc2N(CCCCC(=O)NO)C1=O`: the IC50 came out at 22.4 µM against Histone deacetylase 8, 6.43 µM in assay [1], 4.15 µM against Histone deacetylase 3 [2] and 15.7 µM at Histone deacetylase 1 [3]. In addition, the inhibition in assay [4] amounted to 62.3%; at Histone deacetylase 3 [5], 91.5%; against Histone deacetylase 1 [6], 64.1%; in assay [7] it was 80.6%.
In the case of `O=C(CCCNC(=O)C[C@@H]1N=C(c2ccccc2)c2ccccc2NC1=O)NO`, the 50% inhibitory concentration (IC50) at Histone deacetylase 8 was more than 30 µM; in assay [1], 1.76 µM; against Histone deacetylase 3 [2], 3.21 µM; against Histone deacetylase 1 [3], 17.4 µM. Further, the inhibition in assay [4] was 45.1%; on Histone deacetylase 3 [5], 90.7%; at Histone deacetylase 1 [6], 63.5%; in assay [7], 95%.
For `O=C(CC[C@@H]1N=C(c2ccccc2)c2ccccc2NC1=O)NC(c1ccccc1)(c1ccccc1)c1ccccc1`, the IC50 (against Histone deacetylase 8; in assay [1]; on Histone deacetylase 3 [2]; against Histone deacetylase 1 [3]) was more than 30 µM throughout. Also, the inhibition worked out at 0% in assay [4], 0% at Histone deacetylase 3 [5], 7.59% against Histone deacetylase 1 [6] and 0% in assay [7].
Turning to `CC(C)(C)OC(=O)CC[C@@H]1N=C(c2ccccc2)c2ccccc2NC1=O`, the concentration for half-maximal inhibition (IC50) (against Histone deacetylase 8; in assay [1]; on Histone deacetylase 3 [2]; against Histone deacetylase 1 [3]) was more than 30 µM in each case. Also, the inhibition in assay [4] was found to be 1.79%; on Histone deacetylase 3 [5], 0%; at Histone deacetylase 1 [6], 5.85%; in assay [7], 0.01%.
As to `COC(=O)CCCCN1C(=O)CN=C(c2ccccc2)c2ccccc21`, the half-inhibitory concentration (IC50) (at Histone deacetylase 8; in assay [1]; against Histone deacetylase 3 [2]; against Histone deacetylase 1 [3]) was more than 30 µM throughout. For the same compound, the inhibition was 2.83% in assay [4], 0% against Histone deacetylase 3 [5], 0.19% at Histone deacetylase 1 [6] and 0% in assay [7].
Regarding `CC(C)(C)SC[C@H]1N=C(c2ccccc2)c2ccccc2N(CCCCC(=O)NO)C1=O`, the 50% inhibitory concentration (IC50) at Histone deacetylase 8 was more than 30 µM; in assay [1] it was 5.37 µM; against Histone deacetylase 3 [2], 0.75 µM; against Histone deacetylase 1 [3], 7.99 µM. For the same compound, the inhibition in assay [4] was 44.6%; against Histone deacetylase 3 [5], 98.8%; against Histone deacetylase 1 [6] it was 79.9%; in assay [7], 88%.
`C[C@H](OCc1ccccc1)[C@@H]1N=C(c2ccccc2)c2ccccc2N(CCCCC(=O)O)C1=O`: the IC50 (at Histone deacetylase 8; in assay [1]; on Histone deacetylase 3 [2]; on Histone deacetylase 1 [3]) was more than 30 µM in each case. In addition, the inhibition in assay [4] was 15.4%; on Histone deacetylase 3 [5] it was 0%; against Histone deacetylase 1 [6] it was 2.94%; in assay [7] it was 0%.
Take `CC(C)(C)OC(=O)NCCCC[C@@H]1N=C(c2ccccc2)c2ccccc2N(CCCCC(=O)O)C1=O`: the IC50 (against Histone deacetylase 8; in assay [1]; at Histone deacetylase 3 [2]; against Histone deacetylase 1 [3]) was more than 30 µM each time. Further, the inhibition in assay [4] is -2.29%; at Histone deacetylase 3 [5], 0%; at Histone deacetylase 1 [6] it was 6%; in assay [7] it was 0%.
For the compound `CC(C)(C)SC[C@H]1N=C(c2ccccc2)c2ccccc2N(CCCCC(=O)O)C1=O`, the IC50 (on Histone deacetylase 8; in assay [1]; against Histone deacetylase 3 [2]; at Histone deacetylase 1 [3]) was more than 30 µM in each case. In addition, the inhibition in assay [4] stood at 8.31%; at Histone deacetylase 3 [5] it was 0%; at Histone deacetylase 1 [6], 12.1%; in assay [7] it was 2.08%.
On to `O=C(CCCCN1C(=O)[C@@H](CS)N=C(c2ccccc2)c2ccccc21)NO`, for which the half-inhibitory concentration (IC50) on Histone deacetylase 8 stood at 8.11 µM; in assay [1] it was 0.58 µM; against Histone deacetylase 3 [2], 0.18 µM; at Histone deacetylase 1 [3], 0.46 µM. Further, the inhibition in assay [4] turned out to be 81.2%; against Histone deacetylase 3 [5], 100%; against Histone deacetylase 1 [6], 97.3%; in assay [7], 96.9%.
Regarding `O=C(CC[C@H]1N=C(c2ccccc2)c2ccccc2NC1=O)NO`, the IC50 (on Histone deacetylase 8; in assay [1]; at Histone deacetylase 3 [2]; at Histone deacetylase 1 [3]) was more than 30 µM each time. The inhibition in assay [4] was found to be 9.02%; at Histone deacetylase 3 [5] it was 29.4%; at Histone deacetylase 1 [6] it was 28%; in assay [7] it was 19%.
For `O=C(CCCCN1C(=O)[C@H](CO)N=C(c2ccccc2)c2ccccc21)NO`, the IC50 was more than 30 µM at Histone deacetylase 8, 6.35 µM in assay [1], 4.94 µM on Histone deacetylase 3 [2] and more than 30 µM at Histone deacetylase 1 [3]. Further, the inhibition in assay [4] amounted to 19.9%; at Histone deacetylase 3 [5], 85.9%; against Histone deacetylase 1 [6], 41%; in assay [7] it was 74.4%.
With `O=C(O)CCCCN1C(=O)CN=C(c2ccccc2)c2ccccc21`, the 50% inhibitory concentration (IC50) (against Histone deacetylase 8; in assay [1]; against Histone deacetylase 3 [2]; against Histone deacetylase 1 [3]) was more than 30 µM in each case. The inhibition in assay [4] was 4.33%; against Histone deacetylase 3 [5] it was 0%; at Histone deacetylase 1 [6], 6.45%; in assay [7], 0%.
For `O=C(CCCCN1C(=O)CN=C(c2ccccc2)c2ccccc21)NO`, the IC50 was found to be 6.72 µM at Histone deacetylase 8, 1.89 µM in assay [1], 0.66 µM on Histone deacetylase 3 [2] and 3.84 µM against Histone deacetylase 1 [3]. For the same compound, the inhibition in assay [4] turned out to be 75.9%; against Histone deacetylase 3 [5] it was 97.2%; on Histone deacetylase 1 [6], 88.3%; in assay [7] it was 94.2%.
For the compound `CC(C)C[C@@H]1N=C(c2ccccc2)c2ccccc2N(CCCCC(=O)NO)C1=O`, the IC50 at Histone deacetylase 8 is more than 30 µM; in assay [1], 2.33 µM; against Histone deacetylase 3 [2] it was 0.57 µM; on Histone deacetylase 1 [3], 5.9 µM. The inhibition in assay [4] amounted to 45.2%; on Histone deacetylase 3 [5], 98.5%; on Histone deacetylase 1 [6], 80.5%; in assay [7], 91.6%.

Source of the values: ChEMBL document CHEMBL3997794, “Design and synthesis of benzodiazepine analogs as isoform-selective human lysine deacetylase inhibitors” (Eur J Med Chem, 2017).
